Key:
SD rats = assay: PAN-induced nephropathy in rats; type: in vivo, rat; conditions: PAN 150 mg/kg i.v., pyrintegrin 10 mg/kg daily for 14 days
Description: The induction of nephropathy in male wild type SD rats (n=6 per group) by PAN injection was performed as described. (Reiser et al., J Clin Invest, 2004; Wei et al., Nature Medicine, 2008; Nakamura et al., Lab Invest, 1991.) Briefly, 5 week old male rats were intravenously injected with PAN (150 mg/kg, in water) and treatment with vehicle or pyrintegrin was started on the same day. Animals in the vehicle group were administered saline-based vehicle solution (3.3% DMSO and 5% Cremaphor EL) intraperitoneally daily for 14 days. Animals in the treatment group were treated with pyrintegrin (10 mg/kg, 3.3% DMSO and 5% Cremaphor EL) in the saline based solution daily for 14 days. Spot urine was collected from animals for measurement of albuminuria as mg albumin per mg creatinine. (Faul et al., Nat Med, 2008) Results are expressed as mean±SEM.
Low-dose LPS decreases β1 integrin activation in podocytes and causes podocyte damage and proteinuria in mice. (Yu et al., N Engl J Med, 2013) Here, we used this model to test whether pyrintegrin, by preserving active β1 integrin in podocytes, is able to suppress podocyte FP effacement and the development of proteinuria in live animals. […] Given that pyrintegrin protected podocytes from PAN-induced damage in vitro, we also tested the efficacy of pyrintegrin in a PAN injury model.

human β1 integrin = target: T1, human β1 integrin (Homo sapiens, UniProt P05556); assay: Active β1 integrin (antibody 12G10) in PAN-treated human podocytes; type: cell-based; conditions: PAN treatment (FIG. 9D)
T1 construct: endogenous in cells; host or cells: conditionally immortalized human podocytes (Saleem et al. 2002)
T1 sequence (P05556 21-798): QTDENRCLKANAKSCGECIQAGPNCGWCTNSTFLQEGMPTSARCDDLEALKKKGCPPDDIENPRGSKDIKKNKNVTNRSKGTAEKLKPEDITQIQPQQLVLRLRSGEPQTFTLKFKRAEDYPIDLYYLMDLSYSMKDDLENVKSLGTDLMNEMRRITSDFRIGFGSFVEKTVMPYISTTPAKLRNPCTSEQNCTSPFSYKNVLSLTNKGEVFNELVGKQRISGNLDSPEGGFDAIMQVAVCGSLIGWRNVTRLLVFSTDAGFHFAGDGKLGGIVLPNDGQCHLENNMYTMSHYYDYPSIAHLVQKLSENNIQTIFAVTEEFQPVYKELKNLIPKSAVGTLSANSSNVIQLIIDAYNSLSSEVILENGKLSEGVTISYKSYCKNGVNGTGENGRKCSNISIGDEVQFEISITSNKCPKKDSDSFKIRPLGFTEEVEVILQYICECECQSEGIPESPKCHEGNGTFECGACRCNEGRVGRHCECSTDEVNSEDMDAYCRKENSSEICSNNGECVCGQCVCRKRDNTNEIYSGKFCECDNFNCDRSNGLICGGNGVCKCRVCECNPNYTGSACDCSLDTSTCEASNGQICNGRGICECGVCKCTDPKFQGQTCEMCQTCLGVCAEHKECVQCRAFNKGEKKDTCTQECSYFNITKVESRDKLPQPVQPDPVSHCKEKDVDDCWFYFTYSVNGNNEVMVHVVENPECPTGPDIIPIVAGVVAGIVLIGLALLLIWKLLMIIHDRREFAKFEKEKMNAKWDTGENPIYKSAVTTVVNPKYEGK
T1 sequence (P26006 33-1051 partner): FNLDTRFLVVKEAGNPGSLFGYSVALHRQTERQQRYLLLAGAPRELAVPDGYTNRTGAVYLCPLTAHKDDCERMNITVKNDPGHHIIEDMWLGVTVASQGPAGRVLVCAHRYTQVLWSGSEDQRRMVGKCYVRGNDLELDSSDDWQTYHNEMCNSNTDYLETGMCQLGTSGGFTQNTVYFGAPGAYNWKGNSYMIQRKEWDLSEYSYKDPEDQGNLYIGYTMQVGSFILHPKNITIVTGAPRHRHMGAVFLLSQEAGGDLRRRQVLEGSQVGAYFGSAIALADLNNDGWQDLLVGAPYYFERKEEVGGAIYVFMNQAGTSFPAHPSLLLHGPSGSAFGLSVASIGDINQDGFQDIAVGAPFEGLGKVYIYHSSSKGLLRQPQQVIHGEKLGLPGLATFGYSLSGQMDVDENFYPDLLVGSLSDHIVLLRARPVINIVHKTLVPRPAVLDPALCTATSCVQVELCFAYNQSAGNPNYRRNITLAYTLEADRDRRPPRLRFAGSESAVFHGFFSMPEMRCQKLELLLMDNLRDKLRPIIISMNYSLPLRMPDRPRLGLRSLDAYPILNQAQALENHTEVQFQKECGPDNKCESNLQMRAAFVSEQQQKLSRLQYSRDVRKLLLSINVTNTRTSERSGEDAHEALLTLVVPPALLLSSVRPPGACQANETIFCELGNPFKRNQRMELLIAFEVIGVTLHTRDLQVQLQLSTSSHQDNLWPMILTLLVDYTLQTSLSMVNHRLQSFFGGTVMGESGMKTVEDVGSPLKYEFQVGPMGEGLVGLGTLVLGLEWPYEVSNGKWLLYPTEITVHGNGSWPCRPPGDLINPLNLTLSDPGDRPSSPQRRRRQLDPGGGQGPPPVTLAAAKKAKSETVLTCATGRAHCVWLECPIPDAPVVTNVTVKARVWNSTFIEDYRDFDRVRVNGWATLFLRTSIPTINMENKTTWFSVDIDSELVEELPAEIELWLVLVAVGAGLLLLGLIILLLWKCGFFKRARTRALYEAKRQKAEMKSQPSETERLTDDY
From the text: FIG. 9A-9E. An An β1-integrin agonist pyrintegrin (pyr) protects podocytes from damage. (A) The published chemical structure of pyr. (Xu et al. PNAS, 2010.) (B-D) Pyr protects podocytes from PAN-induced loss of F-actin fibers and focal adhesions and enhances active β1-integrin levels. (B) Graphs showing the effect of pyr on the number of F-actin fibers per cell and the number of vinculin spots per cell under each treatment condition. Data shown are means 6 SEMs per cell from three replicate wells (n=500-1000 cells per well). **P, 0.01; ***P, 0.001; ****P, 0.001. (C) Representative fluorescence images of murine podocytes after various treatments and after staining with phalloidin and antiactive β1 antibody. […] (D) Representative fluorescence images of human podocytes after various treatments as shown. […] Representative images (left panel) and a bar graph (right panel) showing confocal microscopy-based quantitation of the number of migrating podocytes in a scratch wound-healing assay Lines represent the wound margins at the beginning of the experiment (0 hours). […]
Integrin-α3β1 is highly expressed in podocytes and primarily binds to the GBM-expressed ligand laminin, thereby mediating stable adhesion of podocytes to the GBM. […] Given that pyrintegrin affects integrin-β1, (Xu et al., PNAS, 2010.) we quantified the level of β1 in treated cells. […]

O=S(=O)(NCC1CC1)c1ccc(Nc2nccc(N3CCCc4cc(O)ccc43)n2)cc1 [Pyrintegrin]
albuminuria caused by PAN-induced nephropathy (SD rats): significantly reduced albuminuria | level of active β1 integrin in human podocytes (antibody 12G10) (human β1 integrin): rescued

From patent US20170269060A1, “Assays and Compounds to Treat Kidney Diseases” (Rush University Medical Center, priority 2014, published 2017)
